# Source: patent US6613734B2, “Peptides-containing liposomal surfactants” (The Scripps Research Institute, priority 1988, dated 2003)
# How the values were obtained:
# [1] = observation whether peptide/solvent admixture formed a solution or a suspension; format: physicochemical
# Procedure: Each polypeptide was admixed with the indicated solvent at a concentration of 2.5 mg of polypeptide per ml of solvent. […] Those admixtures forming a suspension were further admixed by water bath sonication for 10 seconds to form a very fine suspension, sufficient for pipetting using glass pipettes.
# [2] = pulsating bubble technique ("bubble assay" of Enhorning, Enhorning Surfactometer); format: physicochemical; settings: for Pressure Gradient 15″: 15 seconds; for Pressure Gradient 15″ / Pressure Gradient 1′ / Pressure Gradient 5′: peptide 10% by weight of PL, 37° C., negative pressure, mean of 3; for Pressure Gradient 1′: 1 minute; for Pressure Gradient 5′: 5 minutes
# Procedure: Measurements of surface pressure across an air-liquid interface (expressed in negative cm of H2O pressure) at minimal (γmin) bubble radius were determined at various times using the pulsating bubble technique described by Enhorning, J. Appl. Physiol. 43: 198-203 (1977).
# Briefly, the Enhorning Surfactometer (Surfactometer International, Toronto, Ontario) measures the pressure gradient (ΔP) across a liquid-air interface of a bubble that pulsates at a rate of 20 cycles/min between a maximal (0.55 mm) and minimal (0.4 mm) radius. The bubble, formed in a 37° C., water-enclosed, 20-μl sample chamber, is monitored through a microscopic optic while the pressure changes are recorded on a strip chart recorder calibrated for 0 and −2 cm H2O.
# Each of the surfactants identified in Table 5 was assayed for surfactant activity as evidenced by their ability to reduce surface tension in vitro using the “bubble assay” of Enhorning as described above.
# After admixture with solvent, each peptide was admixed with phospholipids (PL), DPPC:PG, 3:1, in chloroform in a glass tube so that the amount of polypeptide added equaled one-tenth (10% by. weight) of the amount of PL added, to form a surfactant according to either method A, B or C.
# Each of the surfactants was then assayed for surfactant activity as evidenced by their ability to reduce surface tension in vitro in the bubble assay performed as described above. The pressure gradient (ΔP) is a measure of surfactant activity in the polypeptide-PL third admixture which was determined using an Enhorning Surfactometer as described above. Measurements were obtained at time points of 15 seconds (15″), 1 minute (1′) and 5 minutes (5′) and are expressed as a mean of three independent measurements of the indicated polypeptide-PL admixture.
# [3] = 2.5 μg of peptide per μl of solvent, solvent H2O
# [4] = 2.5 mg of polypeptide per ml of solvent, solvent 75% chloroform 25% methanol
substance,measurement,setting,value
C RLVLRCSMDD (N-terminal Cys) [p71-81],Admixture Formed,[1]; [3],suspension
CQCLAERYSVILLDTLLGRMLPQLVCRLVLR [p46-76],Pressure Gradient 15″,[2]; PL (DPPC:PG 3:1) 10 mg/ml,0.90 cm of H2O
same,Pressure Gradient 1′,[2]; PL (DPPC:PG 3:1) 10 mg/ml,0.80 cm of H2O
same,Pressure Gradient 5′,[2]; PL (DPPC:PG 3:1) 10 mg/ml,0.62 cm of H2O
same,Admixture Formed,"[1]; 2.5 mg of polypeptide per ml of solvent, solvent 64% chloroform 36% methanol",solution
CRALIKRIQAMIPKG [p11-25],Admixture Formed,[1]; [3],solution
DTLLGRMLPQLVCRLVLRCSMDD [p59-81],Pressure Gradient 15″,[2]; PL (DPPC:PG 3:1) 4 mg/ml,1.08 cm of H2O
same,Pressure Gradient 1′,[2]; PL (DPPC:PG 3:1) 4 mg/ml,1.02 cm of H2O
same,Pressure Gradient 5′,[2]; PL (DPPC:PG 3:1) 4 mg/ml,0.75 cm of H2O
same,Admixture Formed,"[1]; 2.5 mg of polypeptide per ml of solvent, solvent 68% chloroform 32% methanol",solution
ERYSVILLDTLLGRM [p51-65],Admixture Formed,[1]; [3],suspension
ERYSVILLDTLLGRMLPQLVCR [p51-72],Pressure Gradient 15″,[2]; PL (DPPC:PG 3:1) 10 mg/ml,1.15 cm of H2O
same,Pressure Gradient 1′,[2]; PL (DPPC:PG 3:1) 10 mg/ml,0.76 cm of H2O
same,Pressure Gradient 5′,[2]; PL (DPPC:PG 3:1) 10 mg/ml,0.33 cm of H2O
same,Admixture Formed,[1]; [4],suspension
ERYSVILLDTLLGRMLPQLVCRLVLRCSMDD [p51-81],Pressure Gradient 15″,[2]; PL (DPPC:PG 3:1) 10 mg/ml,0.94 cm of H2O
same,Pressure Gradient 1′,[2]; PL (DPPC:PG 3:1) 10 mg/ml,0.86 cm of H2O
same,Pressure Gradient 5′,[2]; PL (DPPC:PG 3:1) 10 mg/ml,0.64 cm of H2O
same,Admixture Formed,"[1]; 2.5 mg of polypeptide per ml of solvent, solvent 50% chloroform 50% methanol",suspension
LLGRMLPQLVCRLVL [p61-75],Admixture Formed,"[1]; 2.5 μg of peptide per μl of solvent, solvent methanol",suspension
LPQLVCRLVLRCSMDD [p66-81],Pressure Gradient 15″,[2]; PL (DPPC:PG 3:1) 4 mg/ml,1.22 cm of H2O
same,Pressure Gradient 1′,[2]; PL (DPPC:PG 3:1) 4 mg/ml,1.11 cm of H2O
same,Pressure Gradient 5′,[2]; PL (DPPC:PG 3:1) 4 mg/ml,0.84 cm of H2O
same,Admixture Formed,"[1]; 2.5 μg of peptide per μl of solvent, solvent methanol:H2O",suspension
same,Admixture Formed,"[1]; 2.5 mg of polypeptide per ml of solvent, solvent 40% DMF 60% chloroform",suspension
MIPKGALAVAVAQVC [p21-35],Admixture Formed,"[1]; 2.5 μg of peptide per μl of solvent, solvent Chloroform",suspension
RLLLLCLLLRLLLLCLLLR [RCL-1],Pressure Gradient 15″,[2]; PL (DPPC:PG 3:1) 10 mg/ml,0.50 cm of H2O
same,Pressure Gradient 1′,[2]; PL (DPPC:PG 3:1) 10 mg/ml,0.59 cm of H2O
same,Pressure Gradient 5′,[2]; PL (DPPC:PG 3:1) 10 mg/ml,0.06 cm of H2O
same,Admixture Formed,"[1]; 2.5 mg of polypeptide per ml of solvent, solvent 79% chloroform 21% methanol",suspension
RLLLLCLLLRLLLLCLLLRLL [RCL-2],Pressure Gradient 15″,[2]; PL (DPPC:PG 3:1) 10 mg/ml,0.00 cm of H2O
same,Pressure Gradient 1′,[2]; PL (DPPC:PG 3:1) 10 mg/ml,0.00 cm of H2O
same,Pressure Gradient 5′,[2]; PL (DPPC:PG 3:1) 10 mg/ml,0.00 cm of H2O
same,Admixture Formed,"[1]; 2.5 mg of polypeptide per ml of solvent, solvent 67% chloroform 33% methanol",suspention
RLLLLCLLLRLLLLCLLLRLLLLCLLLR [RCL-3],Pressure Gradient 15″,[2]; PL (DPPC:PG 3:1) 10 mg/ml,0.55 cm of H2O
same,Pressure Gradient 1′,[2]; PL (DPPC:PG 3:1) 10 mg/ml,0.51 cm of H2O
same,Pressure Gradient 5′,[2]; PL (DPPC:PG 3:1) 10 mg/ml,0.33 cm of H2O
same,Admixture Formed,[1]; [4],suspension
RLLLLLLLLRLLLLLLLLRLL [RL8],Pressure Gradient 15″,[2]; PL (DPPC:PG 3:1) 10 mg/ml,0.68 cm of H2O
same,Pressure Gradient 1′,[2]; PL (DPPC:PG 3:1) 10 mg/ml,0.69 cm of H2O
same,Pressure Gradient 5′,[2]; PL (DPPC:PG 3:1) 10 mg/ml,0.19 cm of H2O
same,Admixture Formed,"[1]; 2.5 mg of polypeptide per ml of solvent, solvent 19% chloroform 81% methanol",suspension
RLLLLRLLLLRLLLLRLLLLR [RL4],Pressure Gradient 15″,[2]; PL (DPPC:PG 3:1) 4 mg/ml,0.58 cm of H2O
same,Pressure Gradient 1′,[2]; PL (DPPC:PG 3:1) 4 mg/ml,0.65 cm of H2O
same,Pressure Gradient 5′,[2]; PL (DPPC:PG 3:1) 4 mg/ml,0.33 cm of H2O
same,Admixture Formed,"[1]; 2.5 mg of polypeptide per ml of solvent, solvent 32% chloroform 68% methanoi",solution
RRLLLLLLLRRLLLLLLLRRL [RL7],Pressure Gradient 15″,[2]; PL (DPPC:PG 3:1) 4 mg/ml,1.65 cm of H2O
same,Pressure Gradient 1′,[2]; PL (DPPC:PG 3:1) 4 mg/ml,1.25 cm of H2O
same,Pressure Gradient 5′,[2]; PL (DPPC:PG 3:1) 4 mg/ml,1.00 cm of H2O
same,Admixture Formed,"[1]; 2.5 mg of polypeptide per ml of solvent, solvent 49% chloroform 51% methanol",solution
SVILLDTLLGRMLPQLVCR [p54-72],Pressure Gradient 15″,[2]; PL (DPPC:PG 3:1) 10 mg/ml,1.28 cm of H2O
same,Pressure Gradient 1′,[2]; PL (DPPC:PG 3:1) 10 mg/ml,0.92 cm of H2O
same,Pressure Gradient 5′,[2]; PL (DPPC:PG 3:1) 10 mg/ml,0.38 cm of H2O
same,Admixture Formed,"[1]; 2.5 mg of polypeptide per ml of solvent, solvent 76% chloroform 24% methanol",suspension
SVILLDTLLGRMLPQLVCRLVLR [p54-76],Pressure Gradient 15″,[2]; PL (DPPC:PG 3:1) 10 mg/ml,0.92 cm of H2O
same,Pressure Gradient 1′,[2]; PL (DPPC:PG 3:1) 10 mg/ml,0.82 cm of H2O
same,Pressure Gradient 5′,[2]; PL (DPPC:PG 3:1) 10 mg/ml,0.23 cm of H2O
same,Admixture Formed,"[1]; 2.5 mg of polypeptide per ml of solvent, solvent 71% chloroform 24% methanol",suspension
VAGGICQCLAERYSV [p41-55],Admixture Formed,[1]; [3],solution
VAQVCRVVPLVAGGI [p31-45],Admixture Formed,[1]; [3],solution
"p74-81: eight amino acid residue control peptide, residues 74-81 of SEQ ID NO 12 (SP18), does not conform to the teachings of the invention (VLRCSMDD) [reference compound]",Pressure Gradient 15″,[2]; PL (DPPC:PG 3:1) 4 mg/ml,2.37 cm of H2O
same,Pressure Gradient 1′,[2]; PL (DPPC:PG 3:1) 4 mg/ml,2.32 cm of H2O
same,Pressure Gradient 5′,[2]; PL (DPPC:PG 3:1) 4 mg/ml,2.31 cm of H2O
same,surfactant activity compared with the phospholipids alone,"[2]; peptide admixed with phospholipids (DPPC:PG 3:1), bubble assay",did not form a PS having a greater activity than the phospholipid alone
same,Admixture Formed,[1]; [3],solution
same,Admixture Formed,"[1]; 2.5 mg of polypeptide per ml of solvent, solvent water",solution
